In this experiment the target is T1, lck enzyme (Homo sapiens, UniProt P06239).
T1 construct: The lck enzyme comprises the entire lck molecule except the first nine amino acids which are replaced by an His-tag; His-tag (N); made in house
The experiment is described as follows: Non-Radioactive Kinase Assay (lck). The experiment is classed as biochemical. The note with it: mean values of two independent experiments. How it is done: The lck enzyme comprises the entire lck molecule except the first nine amino acids which are replaced by an His-tag for purification purposes. The enzyme is affinity purified.
The reaction is started by the addition of 50 μl 500 μM ATP (in 10 mM MgAc2) and is performed at room temperature.
The solution is incubated for one hour at room temperature and the supernatant discarded. The well is washed twice with 300 μl PBS.

For one molecule, IC50 results are on record in patent US7989474B2, “Use of Lck inhibitors for treatment of immunologic diseases” (Boehringer Ingelheim Pharma GmbH & Co. KG, priority 2002, dated 2011).

T1 sequence (P06239 10-509 limits assumed, species assumed): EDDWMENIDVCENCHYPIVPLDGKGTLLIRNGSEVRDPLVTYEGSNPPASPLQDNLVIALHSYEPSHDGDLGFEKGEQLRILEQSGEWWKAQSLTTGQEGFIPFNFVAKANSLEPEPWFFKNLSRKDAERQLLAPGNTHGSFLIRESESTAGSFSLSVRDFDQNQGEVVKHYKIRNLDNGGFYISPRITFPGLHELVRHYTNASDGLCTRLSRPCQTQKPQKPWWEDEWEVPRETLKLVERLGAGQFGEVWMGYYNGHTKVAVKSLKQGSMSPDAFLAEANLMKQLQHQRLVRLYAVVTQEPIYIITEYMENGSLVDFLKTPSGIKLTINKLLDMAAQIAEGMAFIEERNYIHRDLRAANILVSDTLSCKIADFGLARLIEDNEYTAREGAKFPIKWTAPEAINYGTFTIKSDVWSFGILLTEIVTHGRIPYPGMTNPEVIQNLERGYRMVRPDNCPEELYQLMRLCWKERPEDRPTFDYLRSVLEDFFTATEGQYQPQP

Regarding `COC(=O)c1ccc2c(c1)NC(=O)/C2=C(\Nc1ccc(N(C)C(=O)CN(C)C)cc1)c1ccccc1` [(AI), (Z)-3-(1-(4-(N-(dimethylaminomethylcarbonyl)-N-methyl-amino)-phenylamino)-1-phenyl-methylene)-6-methoxycarbonyl-2-indolinone], the half-maximal inhibitory concentration (IC50) stood at 36 nM.

One may read the IC50 as the concentration that inhibits the measured activity by half.
